Literature values in patent US12115220B2, “Oral mucosal carrier and protectant” (Inspired Material Solutions, LLC, priority 2018, dated 2024).
Like-named read-outs stand apart in the source and are kept apart here.

[1] = 10 mg CBD+10 mg THC in an oral capsule
[2] = after buccal Sativex (10 mg THC+10 mg CBD)

C=C(C)[C@@H]1CCC(C)=C[C@H]1c1c(O)cc(CCCCC)cc1O [CBD, cannabidiol]
mean (SD) peak plasma concentration [1]: 2.5 (2.2) μg/L
mean (SD) peak plasma concentration [2]: 3.0 (3.1) μg/L
Time to maximum concentration (Tmax) (after buccal administration): 2.8 (1.3) h
Time to maximum concentration (Tmax) (after oral administration): 1.3 (0.8) h

CCCCCc1cc(O)c2c(c1)OC(C)(C)[C@@H]1CCC(C)=C[C@@H]21 [THC, delta-9-tetrahydrocannabinol]
mean (SD) peak plasma concentration [1]: 6.4 (3.1) μg/L
plasma maximum concentrations (after a 20 mg dose of oral THC): 4.4 to 11.0 µg/L
mean (SD) peak plasma concentration [2]: 6.1 (5.4) μg/L
Time to maximum concentration (Tmax) (after buccal administration): 2.4 (1.1) h
Time to maximum concentration (Tmax) (after oral administration): 1.0 (0.6) h
bioavailability (inhaled): up to 27%
time of peak concentrations postdose (oral absorption): 1 to 5 h
